A word on the pKa: it is the pH at which an ionisable group is half protonated. Low readings indicate a stronger acid or weaker base, high ones a weaker acid or stronger base.

The text below walks through data of US20240196663A1, “DISPLAY APPARATUS, DISPLAY MODULE, AND ELECTRONIC DEVICE” (SEMICONDUCTOR ENERGY LABORATORY CO., LTD., priority 2022, published 2024).

This data set is described as follows: physchem.
`c1cc(N2CCCC2)c2ccc3c(N4CCCC4)ccnc3c2n1` [Pyrrd-Phen, 4,7-di-1-pyrrolidinyl-1,10-phenanthroline] had a pKa of 11.2.
Under `c1cc(-c2ccc3oc4c(-c5cccc(-c6cccc7c6sc6ccccc67)c5)ncnc4c3c2)cc(-c2cccc3c2sc2ccccc23)c1` [4,8mDBtP2Bfpm, 4,8-bis[3-(dibenzothiophen-4-yl)phenyl]-[1]benzofuro[3,2-d]pyrimidine] stands 0.6.
Then `c1cnc2c(c1)ccc1cccnc12` [phenanthroline, reference compound], with 4.8.
Under `c1ccc2c(c1)-c1ccccc1C21c2ccccc2-c2ccc(N3CCCN4CCCN=C43)cc21` [2hppSF, 1-(9,9′-spirobi[9H-fluoren]-2-yl)-1,3,4,6,7,8-hexahydro-2H-pyrimido[1,2-a]pyrimidine] stands 13.9; under `c1cnccn1` [pyrazine, reference compound], 0.37.
Molecule `c1cc2ccc3ccc(N4CCCN5CCCN=C54)nc3c2nc1N1CCCN2CCCN=C21` [2,9hpp2Phen, 2,9-bis(1,3,4,6,7,8-hexahydro-2H-pyrimido[1,2-a]pyrimidin-1-yl)-1,10-phenanthroline] gave a pKa of 13.3.
Molecule `c1cc(N2CCCn3ccnc32)nc(N2CCCn3ccnc32)c1` [2,6tip2Py, 8,8′-pyridine-2,6-diyl-bis(5,6,7,8-tetrahydroimidazo[1,2-a]pyrimidine)] displayed a pKa of 9.58.
